Laboratory results published in patent US20260297508A1, “MODULATORS OF PROTEIN SECRETION” (SANOFI, priority 2023, published 2026).

What was measured:
[1] = test system: biotin-induced antibody release, U2OS clone #7 cells; assay: High-throughput RUSH screen: biotin-induced cytoplasmic GFP signal decay (antibody release), U2OS clone #7; format: cell-based, human; details: for secretion activator at both low and high concentration (consistently decreased fluorescent signal, among 20 best activators): Prestwick library; for decrease of intracytoplasmic GFP fluorescence signal (biotin-stimulated RUSH system): screening campaigns, summary
Method: FIGS. 4A-4C show the high-throughput screening of chemical compound libraries for the identification of modulators of protein secretion. […] U2OS clone #7 is plated in 384-well plates and incubated for 24 h before treatment with each compound of the Prestwick, ICCB Known Bioactives, or Autophagy Compound Library at 2 concentrations, low and high (with a 10-fold difference). […] The results of the Prestwick library screening at the low drug concentration are plotted. Brefeldin A was used as a positive control of the inhibition of secretion. The compounds causing a cytoplasmic GFP intensity below that observed for biotin-only treated cells are potential enhancers of protein secretion.
U2OS cells were transfected with the streptavidin-KDEL plasmid using Lipofectamine 2000 (Thermo Fisher Scientific) and selected in medium supplemented with G418 (400 μg/mL, Gibco-Invitrogen) for 2 weeks. Limiting dilution in 96-well plates was used for single cell isolation from the selected pool. Clones were amplified and selected based on streptavidin immunofluorescence. Clone #BD6 showing the highest streptavidin expression was further expanded in medium supplemented with G418 (200 μg/mL) and transfected with the anti-PD-L1 IgG RUSH plasmid using Lipofectamine 2000 and selected in medium supplemented with G418 (200 μg/mL) and hygromycin (100 μg/mL, Santa Cruz Biotechnology) for 2 weeks. Limiting dilution in 96-well plates was used for single cell isolation from clone #BD6-derived selected pool. Clones were amplified and selected based on GFP fluorescence and clone #7 was selected for further characterization and screening campaigns.
U2OS clone #7 cells were seeded in black 384-well imaging plates (Greiner bio one), 2,000 cells/well, and incubated for 24 h at 37° C. in a humidified incubator with 5% CO2. Cells were treated on the next day with the compounds from either the Prestwick library at […], the ICCB Known Bioactives library at 1/100^e or 1/1000^e, or the autophagy compound library at 10 μM or 1 μM for 4 h. […] Cells were then fixed as described above and processed for subsequent automated image acquisition using a robot-assisted IXM XL BioImager (Molecular Devices, Sunnyvale, CA, USA) equipped with a Sola light source (Lumencor, Beaverton, OR, USA), adapted excitation and emission filters (Semrock) a 16-bit monochrome sCMOS PCO.edge 5.5 camera (PCO, Kelheim, Germany). A 20× PlanAPO objective (Nikon, Tokyo, Japan) was used to acquire a minimum of 4 view fields in each well. The acquired images were processed using the open-access R software (https://www.r-project.org) with the help of freely available packages EBImage (available on the Bioconductor repository https://www.bioconductor.org), and RBioFormats (https://github.com/aoles/RBioFormats), and the custom packages MetaxpR (https://github.com/asauvat/MetaxpR) and MorphR (https://github.com/kroemerlab/MorphR). Nuclei were first detected using Hoechst 33342 signal and used as a marker to detect cytoplasmic areas based on GFP signal, allowing for the evaluation of cytoplasmic GFP intensity. Data were thereafter extracted and statistically evaluated using R (https://www.r-project.org). Data were normalized using negative and positive controls, reduced and transformed into a Z-score. The experiments were repeated manually at low scale with selected drugs to confirm their effects on secretion, in this second set of assays, U2OS clone #7 cells incubated with secretion inhibitors were fixed and stained with Hoechst as described above for imaging and viability determination based on cell counts.
We next sought to use clone #7 in screening campaigns for the identification of drugs capable of enhancing or inhibiting antibody secretion. […] Cell counting was facilitated by nuclear counterstaining with Hoechst 33324 in order to assess viability and distinguish drug effects on the secretion kinetics from direct cytotoxicity and select relevant drugs for further characterization. […]

[2] = test system: SCAP; details: cited from earlier work
[3] = test system: biotin-induced antibody release, U2OS clone #7 cells; assay: Low-throughput validation by imaging of the biotin-induced antibody release (cytoplasmic GFP), clone #7; format: cell-based, human; details: FIG. 5C
Method: FIGS. 5A-5C show selection of potential enhancers of protein secretion. FIGS. 5A and 5B) show dot plot representations of drugs efficiency based on their Z-scores measured at low and high drug concentration (FIG. 5A, Prestwick library; FIG. 5B, ICCB Known Bioactives and TargetMol Autophagy libraries). Compounds selected for further characterization are listed. (FIG. 5C) Clone #7 was treated with the indicated compounds, fixed and analyzed as described in FIG. 4A legend.
FIG. 6A-6C show validation of enhancers of protein secretion.
U2OS clone #7 cells were seeded in black 384-well imaging plates (Greiner bio one), 2,000 cells/well, and incubated for 24 h at 37° C. in a humidified incubator with 5% CO2. Cells were treated on the next day with the compounds from either the Prestwick library at […], the ICCB Known Bioactives library at 1/100^e or 1/1000^e, or the autophagy compound library at 10 μM or 1 μM for 4 h. […] Cells were then fixed as described above and processed for subsequent automated image acquisition using a robot-assisted IXM XL BioImager (Molecular Devices, Sunnyvale, CA, USA) equipped with a Sola light source (Lumencor, Beaverton, OR, USA), adapted excitation and emission filters (Semrock) a 16-bit monochrome sCMOS PCO.edge 5.5 camera (PCO, Kelheim, Germany). A 20× PlanAPO objective (Nikon, Tokyo, Japan) was used to acquire a minimum of 4 view fields in each well. […] Nuclei were first detected using Hoechst 33342 signal and used as a marker to detect cytoplasmic areas based on GFP signal, allowing for the evaluation of cytoplasmic GFP intensity. Data were thereafter extracted and statistically evaluated using R (https://www.r-project.org). […]
Medium- and high-throughput screenings often yield false positive and negative hits, calling for independent validation in low-throughput experiments with orthogonal technologies. In a first round of experiments, we evaluated the effects of shortlisted compounds with potential antibody secretion enhancer activity. […]

[4] = test system: RUSH antibody secretion, U2OS clone #7 cells; assay: ELISA on immobilized PD-L1: RUSH antibody titer in supernatant of treated clone #7 cells; format: cell-based, human; details: PD-L1 binding ELISA
Method: FIGS. 7A and 7B show validation of inhibitors of protein secretion. […] Clone #7 cells were treated with the indicated compounds and supernatants were assayed for PD-L1 binding. Brefeldin A was used as a protein secretion inhibitor positive control. […] Hoechst 33324 fluorescence was measured, which enabled to number adherent living cells in each well.
U2OS clone #7 cells were seeded in 6-well plates and kept for 24 h at 37° C. in a humidified incubator with 5% CO2. The next day, the supernatants were removed, cells were rinsed with 37° C. pre-heated PBS and new medium containing the chemical treatment was added for 4 h. […] Then supernatants were collected and used for the ELISA assay as follows. MaxiSorp 96-well plates (Thermo Fisher Scientific) were coated with 0.5 μg/mL hFc-human-PD-L1 (R&D Systems, Minneapolis, MN) in PBS for 5.5 h at RT. Coating solution was then removed and 2% BSA/PBS blocking solution was added overnight at 4° C. The next day, wells were washed 3 times with 0.5% BSA/0.05% Tween-20/PBS solution. Supernatants were added after a ⅓ dilution in 0.5% BSA/0.05% Tween-20/PBS, for 2.3 h at RT. Wells were washed 3 times with 0.5% BSA/0.05% Tween-20/PBS solution. Anti-human kappa light chain HRP-coupled antibody was added diluted in 0.5% BSA/0.05% Tween-20/PBS at 1/4000^e for 2.3 h at RT. Wells were washed 3 times with 0.5% BSA/0.05% Tween-20/PBS solution before incubation with substrate reagents pack (R&D Systems) for 15 min in the dark. Fifty μL of STOP solution (R&D Systems) were then added to each well and the absorbance in each well was subsequently measured at 450 nm, and 635 nm for background subtraction, using a VICTOR™ X4 (PerkinElmer, Waltham, MA).
Medium- and high-throughput screenings often yield false positive and negative hits, calling for independent validation in low-throughput experiments with orthogonal technologies. In a first round of experiments, we evaluated the effects of shortlisted compounds with potential antibody secretion enhancer activity. Compounds identified in the screening campaigns were tested again on clone #7 at a low concentration (FIG. 6A) or a ten-fold higher concentration (FIG. 6B) for their ability to increase antibody secretion. […] We further characterized these hits in an PD-L1 binding ELISA.

[5] = 4 h compound, then 40 μM biotin 1 h
[6] = ICCB Known Bioactives and TargetMol Autophagy libraries, 4 h compound, then 40 μM biotin 1 h

Molecule	secretion activator at both low and high concentration (consistently decreased fluorescent signal, among 20 best activators) [1, 5]	decrease of intracytoplasmic GFP fluorescence signal (biotin-stimulated RUSH system) [1]	further results
O=C(O)CCNC(=O)c1ccc(/N=N/c2ccc(O)c(C(=O)O)c2)cc1 [balsalazide sodium]	fulfilled these criteria	–	–
C[C@H]1CCC/C=C/[C@@H]2C[C@H](O)C[C@H]2[C@H](O)/C=C/C(=O)O1 [brefeldin A]	–	–	inhibition of the biotin-induced decrease of the GFP signal ([1]; 4 h compound, then 40 μM biotin 1 h, screening): inhibited the biotin-induced decrease of the GFP signal
C[C@@H]1C[C@@H]([C@H](O)CC2CC(=O)NC(=O)C2)C(=O)[C@@H](C)C1 [cycloheximide, 4-[(2R)-2-[(1S,3S,5S)-3,5-dimethyl-2-oxocyclohexyl]-2-hydroxyethyl]piperidine-2,6-dione]	fulfilled these criteria	consistently decreased intracytoplasmic GFP fluorescence	–
C[C@]12CC[C@H](O)C[C@H]1CC[C@@H]1[C@@H]2C[C@@H](O)[C@]2(C)[C@@H](C3=CC(=O)OC3)CC[C@]12O [digoxigenin, 3-[(3S,5R,8R,9S,10S,12R,13S,14S,17R)-3,12,14-trihydroxy-10,13-dimethyl-1,2,3,4,5,6,7,8,9,11,12,15,16,17-tetradecahydrocyclopenta[a]phenanthren-17-yl]-2H-furan-5-one]	fulfilled these criteria	consistently decreased intracytoplasmic GFP fluorescence	–
CC[C@H]1CN2CCc3cc(OC)c(OC)cc3[C@@H]2C[C@@H]1C[C@H]1NCCc2cc(OC)c(OC)cc21 [emetine]	–	–	activity as secretion activator at both low and high concentrations [1, 6]: active at both low and high concentrations
O[C@H]1[C@H]2c3cc4c(cc3CN3CCC(=C[C@@H]1O)[C@H]23)OCO4 [lycorine, 3,12-Didehydro-2′H-[1,3]dioxolo[4′,5′:9,10]galanthan-1α,2β-diol]	–	consistently decreased intracytoplasmic GFP fluorescence	SCAP inhibition ([2]; orally active): potent and orally active SCAP inhibitor; SCAP protein level ([2]; without changing its transcription): downregulates; effect on secretion by cell imaging [3]: secretion activator effect; RUSH antibody titers in treated cell culture supernatant ([4]; summary): shown to increase RUSH antibody titers; effect on antibody secretion compared with sodium butyrate ([4]; 1 and 50 μM): milder than that of sodium butyrate; antibody secretion-stimulatory activity ([4]; lycorine tested at both 1 and 50 μM, 4 h compound, biotin 1 h): considered to be active; efficiency as secretion activator, high concentration ([1]; ICCB Known Bioactives and TargetMol Autophagy libraries, high concentration): not among the 20 most active compounds at the high concentration; efficiency as secretion activator, low concentration ([1]; ICCB Known Bioactives and TargetMol Autophagy libraries, low concentration): more efficient than any other compound at low concentration
C1N2CN3CN1CN(C2)C3 [methenamine, 1,3,5,7-tetrazatricyclo[3.3.1.13,7]decane]	fulfilled these criteria	consistently decreased intracytoplasmic GFP fluorescence	–
O=C1CC(c2ccccc2)Oc2cc(O)cc(O)c21 (stereo not drawn) [pinocembrin, 5,7-Dihydroxy-2-phenyl-2,3-dihydro-4H-chromen-4-one]	–	consistently decreased intracytoplasmic GFP fluorescence	activity as secretion activator at both low and high concentrations [1, 6]: active at both low and high concentrations
CCC1(CC)C(=O)C=CNC1=O [pyrithyldione, 3,3-diethyl-1H-pyridine-2,4-dione]	fulfilled these criteria	consistently decreased intracytoplasmic GFP fluorescence	–
verteporfin	fulfilled these criteria	–	phototoxicity leading to GFP bleaching ([1]; data not shown): phototoxicity that leads to GFP bleaching
